Results reported in patent US20250255847A1, “[…]s: Novel Drugs for Triple Negative Breast Cancer” (SIMMARON RSEARCH INC, priority 2024, published 2025).

System: RANTES
Assay: RANTES real-time PCR and ELISA in MDA-MB-468 cells
Assay type: cell-based, human
Details: 20 nM; for gene expression of RANTES (real-time PCR): 5 hrs post-treatment; for protein expression of RANTES (ELISA): 48 hrs post treatment
Experimental: FIG. 10 illustrates an embodiment of the present invention and illustrates SIM-1 and SIM-2 inhibit expressions of IL6, RANTES, and other STAT3-dependent tumor promoting genes and proteins. (A) A gene array of STAT3 dependent 66 genes (listed in Table 1) was performed in mRNA samples of MDA-MB-468 cells. Realtime PCR plate coated with 66 primer sets of STAT3-dependent genes was run for four conditions including control, EGF (25 ng/mL), EGF+SIM-1 (10 nM) and EGF+SIM-2 (10 nM). The resultant Ct value was normalized with four different housekeeping genes, and then summarized with a heatmap analyses drawn in Morpheus server of Broad Institute. […] (C) The cloning of STAT3 response element of IL6 promoter upstream of GFP reporter was performed by GeneCopoea genome editing service (Rockville, MD). The bit score map and sequence of consensus STAT3 response element or SEQ ID NO: 2 was shown below. EGFP reporter assay was performed in EGF-induced (20 ng/mL) MDA-MB-468 after treatments of increasing doses of (D) SIM-1 and (E) SIM-2 for 5 hrs. Briefly, MDA-MB-468 cells were transfected with the plasmid for 24 hrs using Lipofectamine transfection strategy followed by the treatment with EGF (20 ng/mL) alone and together with increasing doses SIM-1 and SIM-2 for additional 5 hrs. After that live cells were recorded at Ex:Em=485/535 nm wavelength for GFP activity. (F) The scrambled STAT3 response element in IL6 promoter or SEQ ID NO: 3 was also synthesized partnering with GeneCopoea. One-way ANOVA (treatment as effector) was adopted to test the significance between groups at **p<0.01, #p<0.005, and *p<0.05. (G) The GFP reporter activity was measured where the scrambled gene was cloned upstream of eGFP reporter. Results are mean±SD of three different experiments Ns=no significance. (H) Realtime PCR analyses of IL6 was performed in MDA-MB-468 cells maintained under control, EGF (25 ng/mL), EGF+SIM-1(20 nM), and EGF+SIM-2 (20 nM) conditions for 5 hrs. (I) ELISA analysis of IL6 was performed after 48 hrs in MDA-MB-468 cells kept under similar treatment conditions. (J) Realtime PCR (5 hrs post-treatment) and (K) ELISA analyses of RANTES (48 hrs post treatment) were performed under similar condition. Results are mean±SD of three different experiments. One-way ANOVA (treatment as effector) was adopted to test the significance between groups at ***p<0.001, **p<0.01, and *p<0.05.
ELISA assay. IL6 (BD OptEIA™; Cat #555220) and RANTES (Thermo; Cat #EHRNTS) ELISA was performed as per manufacturer's protocol. […]
Once the transcriptional regulation of STAT3-dependent genes was confirmed, the quantification of IL6 was performed. […]

| SMILES | gene expression of RANTES (real-time PCR) | protein expression of RANTES (ELISA) |
| --- | --- | --- |
| O=C(O)CCC(=O)NCc1csc2ccc(Cl)cc12 [SIM-1, 4-[(5-chloro-1-benzothiophen-3-yl)methylamino]-4-oxobutanoic acid] | significantly downregulated | significantly downregulated |
| CCOC(=O)c1c(NC(C)=O)sc2c(Cl)c(/C=N/O)ccc12 [SIM-2, ethyl 2-acetamido-7-chloro-6-(hydroxyiminomethyl)-1-benzothiophene-3-carboxylate] | significantly downregulated | significantly downregulated |
